US20240374631A1, “A COMPOSITION FOR IMPROVING GUT MICROBIOTA, BEHAVIOURAL PATTERN, ALPHA-SYNUCLEIN LEVELS, SLEEP PATTERN AND/OR SERUM MELATONIN” (GN Corporation Co Ltd, priority 2021, published 2024)

Tested on: gut microbiota
Test: Gut microbiome analysis (16S rRNA sequencing of fecal samples) in STAM model of NASH
Assay type: in vivo, C57BL/6J mice
Text: The study is reported in accordance with Animal Research: Reporting of In Vivo Experiments (ARRIVE) guidelines. C57BL/6J mice were obtained from Japan SLC, Inc. (Japan). All animals used in this study were cared for under the following guidelines: Act on Welfare and Management of Animals (Ministry of the Environment, Japan, Act No. 105 of Oct. 1, 1973), standards relating to the care and management of laboratory animals and relief of pain (Notice No. 88 of the Ministry of the Environment, Japan, Apr. 28, 2006) and the guidelines for proper conduct of animal experiments (Science Council of Japan, Jun. 1, 2006). Protocol approvals were obtained from SMC Laboratories, Japan's IACUC (Study reference no: […] Mice were maintained in a specific pathogen-free (SPF) facility under controlled conditions of temperature (23±3° C.), humidity (50±20%), lighting (12-hour artificial light and dark cycles; light from 8:00 to 20:00) and air exchange. The STAM model of NASH was induced as previously described [D10]. Mice were given a single subcutaneous injection of 200 μg streptozotocin (STZ, Sigma-Aldrich, USA) solution 2 days after birth and fed with a high-fat diet (HFD, 57 kcal % fat, Cat #HFD32, CLEA Japan, Inc., Japan) from 4-9 weeks of age. All mice develop liver steatosis and diabetes and at […] mice had established steatohepatitis, histologically. Studygroups: There were five study groups, described below. Eight mice were included in each study group. Eight NASH mice were orally administered vehicle supplemented with AFO-202 Beta Glucan at a dose of 1 mg/kg in a volume of 5 mL/kg once daily from 6 to 9 weeks of age. Eight NASH mice were orally administered vehicle supplemented with Telmisartan at a dose of 10 mg/kg once daily from 6 to 9 weeks of age. Frequency: Fecal samples were collected at the 6 weeks of age (before administration) and 9 weeks of age (before sacrifice). Procedure: At 6 weeks of age, fecal samples were collected from each mouse by clean catch method. […] A sterile petri dish was placed on the bench. Gently massage the abdomen, position the bottom of mouse over a fresh petri dish, and collect 1-2 fecal pellets. At sacrifice, fecal samples were aseptically collected from cecum. The tubes with feces were placed on ice immediately. These tubes were snap frozen in liquid nitrogen and stored at -80° C. for shipping. In this analysis, the 16S rRNA sequence data acquired by the next-generation sequencer from the fecal […] was used to perform community analysis using the QIIME2 program for microbial community analysis. The raw read data in FASTQ format output from the next-generation sequencer was trimmed to remove adapter sequences and low QV regions that may be included in the data. Cutadapt was used to remove adapter sequences from DNA sequencing reads. Trimmomatic was used as read trimming tool for Illumina NGS data. The adapter sequence was trimmed using the adapter trimming program “cutadapt” if the Trimming of the region at the end of the read sequence overlapped the corresponding sequence by at least one base (mismatch tolerance: 20%). When reads containing N were present in at least one of Read1 and Read2, both Read1 and Read2 were removed. Trimming of low QV regions was performed on the read data after processing using the QV trimming program “Trimmomatic” under the following conditions. The window of 20 bases is slid from the 5' side, and the area where the average QV is less than 20 is trimmed. After trimming, only the reads with more than 50 bases remaining in both Read1 and Read2 were taken as output. The microbial community analysis based on 16S rRNA sequence was performed on the sequence data trimmed in the previous section using the microbial community analysis program “QIIME2”. The annotation program “sklearn” included in QIIME2 is used to annotate the ASV (OTU) sequences. […]

CCCc1nc2c(C)cc(-c3nc4ccccc4n3C)cc2n1Cc1ccc(-c2ccccc2C(=O)O)cc1 [Telmisartan]
Abundance: Family Methanobacteriaceae, Genus Methanobrevibacter, Species — (pre (baseline), table row r429): 0 | Abundance: Family Lachnospiraceae, Genus Other, Species Other (pre (baseline), table row r431): 12 | Abundance: Family Lachnospiraceae, Genus Dorea, Species — (pre (baseline), table row r432): 0 | Abundance: Family Lachnospiraceae, Genus Dorea, Species — (pre (baseline), table row r433): 7 | Abundance: Family Lachnospiraceae, Genus —, Species — (pre (baseline), table row r434): 11 | Abundance: Family Erysipelotrichaceae, Genus —, Species — (pre (baseline), table row r435): 0 | Abundance: Family Other, Genus Other, Species Other (pre (baseline), table row r437): 0 | Abundance: Family Ruminococcaceae, Genus Ruminococcus, Species — (pre (baseline), table row r438): 0 | Abundance: Family Lachnospiraceae, Genus Other, Species Other (pre (baseline), table row r439): 0 | Abundance: Family Erysipelotrichaceae, Genus Clostridum, Species cocleatum (pre (baseline), table row r440): 0 | Abundance: Family Clostridiaceae, Genus —, Species — (pre (baseline), table row r441): 10 | Abundance: Family S24-7, Genus —, Species — (pre (baseline), table row r442): 0 | Abundance: Family Ruminococcaceae, Genus Oscillospira, Species — (pre (baseline), table row r443): 0 | Abundance: Family Erysipelotrichaceae, Genus —, Species — (pre (baseline), table row r446): 0 | Abundance: Family Streptococcaceae, Genus —, Species — (pre (baseline), table row r447): 0 | Abundance: Family Erysipelotrichaceae, Genus —, Species — (pre (baseline), table row r448): 0 | Abundance: Family Turicibacteraceae, Genus Turicibacter, Species — (pre (baseline), table row r449): 0 | Abundance: Family S24-7, Genus —, Species — (pre (baseline), table row r450): 0 | Abundance: Family Ruminococcaceae, Genus Oscillospira, Species — (pre (baseline), table row r451): 0 | Abundance: Family Lachnospiraceae, Genus —, Species — (pre (baseline), table row r452): 0 | Abundance: Family Erysipelotrichaceae, Genus —, Species — (pre (baseline), table row r454): 0 | Abundance: Family Ruminococcaceae, Genus Ruminococcus, Species — (pre (baseline), table row r455): 0 | Abundance: Family Moraxellaceae, Genus Psychrobacter, Species Other (pre (baseline), table row r456): 0 | Abundance: Family Paenibacillaceae, Genus Other, Species Other (pre (baseline), table row r457): 0 | Abundance: Family Lachnospiraceae, Genus Coprococcus, Species — (pre (baseline), table row r458): 0 | Abundance: Family Bacillaceae, Genus Bacillus, Species — (pre (baseline), table row r459): 0 | Abundance: Family Enterococcaceae, Genus Vagococcus, Species — (pre (baseline), table row r460): 0 | Abundance: Family Lachnospiraceae, Genus —, Species — (pre (baseline), table row r462): 0 | Abundance: Family Ruminococcaceae, Genus Oscillospira, Species — (pre (baseline), table row r466): 0 | Abundance: Family Erysipelotrichaceae, Genus —, Species — (pre (baseline), table row r468): 4 | Abundance: Family Other, Genus Other, Species Other (pre (baseline), table row r469): 0 | Abundance: Family Clostridiaceae, Genus Clostridium, Species Other (pre (baseline), table row r470): 0 | Abundance: Family Ruminococcaceae, Genus —, Species — (pre (baseline), table row r473): 3 | Abundance: Family Deferribacteraceae, Genus Mucispirillum, Species schaedleri (pre (baseline), table row r474): 0 | Abundance: Family Turicibacteraceae, Genus Turicibacter, Species — (pre (baseline), table row r475): 0 | Abundance: Family [Mogibacteriaceae], Genus —, Species — (pre (baseline), table row r478): 0 | Abundance: Family Lachnospiraceae, Genus Dorea, Species longicateria (pre (baseline), table row r480): 2 | Abundance: Family Ruminococcaceae, Genus —, Species — (pre (baseline), table row r481): 0 | Abundance: Family Lachnospiraceae, Genus —, Species — (pre (baseline), table row r482): 0 | Abundance Erysipelotrichaceae/Allobaculum/— (pre, line r8): 6375 | Abundance Turicibacteraceae/Turicibacter/— (pre, line r9): 9408 | Abundance Desulfovibrionaceae/—/— (pre, line r10): 3882 | Abundance Clostridiaceae/Other/Other (pre, line r11): 7143 | Abundance Lactobacillaceae/Lactobacillus/— (pre, line r12): 416 | Abundance Streptococcaceae/Lactococeus/— (pre, line r13): 2239 | Abundance Bacteroidaceae/Bacteroides/— (pre, line r14): 1596 | Abundance [Paraprevotellaceae]/[Prevotella]/— (pre, line r15): 1674 | Abundance —/—/— (pre, line r16): 1552 | Abundance Deferribacteraceae/Mucispirillum/schaedleri (pre, line r17): 4795 | Abundance Bacteroidaceae/Bacteroides/acidifaciens (pre, line r18): 983 | Abundance —/—/— (pre, line r19): 853 | Abundance Verrucomicrobiaceae/Akkermansia/muciniphila (pre, line r20): 2305 | Abundance Rikenellaceae/—/— (pre, line r21): 696 | Abundance Enterobacteriaceae/Other/Other (pre, line r22): 17 | Abundance Lactobacillaceae/Lactobacillus/— (pre, line r23): 883 | Abundance S24-7/—/— (pre, line r24): 623 | Abundance Lachnospiraceae/—/— (pre, line r25): 752 | Abundance Peptostreptocpccaceae/—/— (pre, line r26): 1121 | Abundance Lachnospiraceae/[Ruminococcus]/gnavus (pre, line r27): 2041 | Abundance Lachnospiraceae/Coprococeus/— (pre, line r28): 444 | Abundance Bifidobacteriaceae/Bifidobacterium/pseudolongum (pre, line r29): 1317 | Abundance Enterobacteriaceae/Proteus/— (pre, line r30): 0 | Abundance Lactobacillaceae/Lactobacillus/Other (pre, line r31): 64 | Abundance S24-7/—/— (pre, line r32): 740 | Abundance Porphyromonadaceae/Parabacteroides/distasonis (pre, line r33): 320 | Abundance Clostridiaceae/—/— (pre, line r34): 1242 | Abundance —/—/— (pre, line r35): 420 | Abundance Desulfovibrionaceae/Desulfovibrio/— (pre, line r36): 65 | Abundance S24-7/—/— (pre, line r37): 708 | Abundance Coriobacteriaceae/Adlercreutzia/— (pre, line r38): 625 | Abundance S24-7/—/— (pre, line r39): 480 | Abundance Erysipelotrichaceae/Clostridium/cocleatum (pre, line r40): 319 | Abundance Ruminococcaceae/Ruminococcus/— (pre, line r41): 1164 | Abundance Lachnospiraceae/Other/Other (pre, line r43): 481 | Abundance Lachnospiraceae/[Ruminococcus]/gnavus (pre, line r44): 311 | Abundance Turicibacteraceae/Turicibacter/— (pre, line r45): 586 | Abundance Lachnospiraceae/—/— (pre, line r46): 611 | Abundance Bacteroidaceae/Bacteroides/— (pre, line r47): 460 | Abundance Ruminococcaceae/Oscillospira/— (pre, line r48): 293 | Abundance Lachnospiraceae/Roseburia/— (pre, line r50): 488 | Abundance Lachnospiraceae/—/— (pre, line r51): 338 | Abundance S24-7/—/— (pre, line r52): 305 | Abundance Lachnospiraceae/[Ruminococcus]/gnavus (pre, line r53): 123 | Abundance Lachnospiraceae/Coprococcus/— (pre, line r56): 126 | Abundance S24-7/—/— (pre, line r57): 322 | Abundance S24-7/—/— (pre, line r58): 237 | Abundance Lachnospiraceae/Other/Other (pre, line r60): 562 | Abundance Lachnospiraceae/[Ruminococcus]/gnavus (pre, line r61): 375 | Abundance Erysipelotrichaceae/Allobaculum/— (pre, line r62): 286 | Abundance Desulfovibrionaceae/Desulfovibrio/C21_c20 (pre, line r63): 604 | Abundance S24-7/—/— (pre, line r64): 383 | Abundance Streptococcaceae/Lactococcus/garvieae (pre, line r66): 11 | Abundance Enterobacteriaceae/Proteus/— (pre, line r68): 0 | Abundance Lachnospiraceae/—/— (pre, line r69): 44 | Abundance S24-7/—/— (pre, line r70): 399 | Abundance Lachnospiraceae/[Ruminococcus]/gnavus (pre, line r71): 278 | Abundance Clostridiaceae/Clostridium/Other (pre, line r73): 707 | Abundance Lachnospiraceae/—/— (pre, line r74): 0 | Abundance Clostridiaceae/Other/Other (pre, line r75): 215 | Abundance Clostridiaceae/Other/Other (pre, line r77): 255 | Abundance S24-7/—/— (pre, line r78): 196 | Abundance Lachnospiraceae/[Ruminococcus]/gnavus (pre, line r79): 601 | Abundance Bacteroidaceae/Bacteroides/— (pre, line r80): 170
